# According to PubChem BioAssay AID330 (DTP/NCI, 2004):
# Values joined by “and” are separate entries in the source; they are usually repeats but may differ in a detail not shown here. Identical values can stand only once. Toxic doses and inconclusive results are not listed.
# System: P388 leukemia ip, CD2F1 mice, survival T/C
# Test: NCI In Vivo Anticancer Drug Screen. Data for tumor model P388 Leukemia (intraperitoneal) in CD2F1 (CDF1) mice
# Conditions: endpoint: median survival time, higher = longer survival
# Method in brief: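 Mice carrying the transplanted tumor received test compound or vehicle. Survival was recorded in each group, and the value is the treated-group measurement divided by that of the vehicle-treated control group.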
# [1] = dose: 6.25 mg/kg/injection, schedule: Q01DX009 (ip), vehicle: saline
# [2] = dose: 12.5 mg/kg/injection, schedule: Q01DX009 (ip), vehicle: saline
# [3] = dose: 50.0 mg/kg/injection, schedule: Q01DX005 (ip), vehicle: saline with Tween-80
# [4] = dose: 100.0 mg/kg/injection, schedule: Q01DX005 (ip), vehicle: saline with Tween-80
# [5] = dose: 200.0 mg/kg/injection, schedule: Q01DX005 (ip), vehicle: saline with Tween-80
# [6] = dose: 50.0 mg/kg/injection, schedule: Q01DX005 (ip), vehicle: saline
# [7] = dose: 100.0 mg/kg/injection, schedule: Q01DX005 (ip), vehicle: saline
# [8] = dose: 200.0 mg/kg/injection, schedule: Q01DX005 (ip), vehicle: saline
# [9] = dose: 100.0 mg/kg/injection, schedule: Q01DX001 (ip), vehicle: Klucel (hydroxypropylcellulose) (HPC)
smiles,measurement,setting,value
C[N+]1(Cc2ccccc2)C2CCC1C(CCl)C(O)C2 (stereo not drawn),T/C,"dose: 3.12 mg/kg/injection, schedule: Q01DX009 (ip), vehicle: saline",111 % of control
same,T/C,[1],115 % of control
same,T/C,[2],101 % of control and 104 % of control
NP(=O)(Oc1ccccc1)Oc1ccccc1,T/C,"dose: 6.23 mg/kg/injection, schedule: Q01DX009 (ip), vehicle: saline with Tween-80",95 % of control
same,T/C,"dose: 12.5 mg/kg/injection, schedule: Q01DX009 (ip), vehicle: saline with Tween-80",100 % of control
same,T/C,"dose: 25.0 mg/kg/injection, schedule: Q01DX009 (ip), vehicle: saline with Tween-80",95 % of control
N#CC(C#N)=NNc1ccc2cn[nH]c2c1,T/C,"dose: 12.5 mg/kg/injection, schedule: Q01DX005 (ip), vehicle: Klucel (hydroxypropylcellulose) (HPC)",101 % of control
same,T/C,"dose: 25.0 mg/kg/injection, schedule: Q01DX005 (ip), vehicle: Klucel (hydroxypropylcellulose) (HPC)",105 % of control and 107 % of control
same,T/C,"dose: 50.0 mg/kg/injection, schedule: Q01DX005 (ip), vehicle: Klucel (hydroxypropylcellulose) (HPC)",116 % of control and 119 % of control and 120 % of control
CCCCCCCCCCCCCCCCS(=O)(=O)N/N=C(/C)N(C)c1ccc(OC)cc1,T/C,"dose: 50.0 mg/kg/injection, schedule: Q01DX009 (ip), vehicle: Klucel (hydroxypropylcellulose) (HPC)",107 % of control
same,T/C,"dose: 100.0 mg/kg/injection, schedule: Q01DX009 (ip), vehicle: Klucel (hydroxypropylcellulose) (HPC)",107 % of control
same,T/C,"dose: 200.0 mg/kg/injection, schedule: Q01DX009 (ip), vehicle: Klucel (hydroxypropylcellulose) (HPC)",111 % of control
CCCCNP(=O)(N1CC1CC)N1CC1CC (stereo not drawn),T/C,"dose: 50.0 mg/kg/injection, schedule: Q01DX009 (ip), vehicle: saline",122 % of control
same,T/C,"dose: 100.0 mg/kg/injection, schedule: Q01DX009 (ip), vehicle: saline",150 % of control
same,T/C,"dose: 200.0 mg/kg/injection, schedule: Q01DX009 (ip), vehicle: saline",104 % of control
same,T/C,"dose: 300.0 mg/kg/injection, schedule: Q04DX003 (ip), vehicle: saline",195 % of control
c1ccc2c(c1)Nc1ccccc1C1CC21 (stereo not drawn),T/C,"dose: 50.0 mg/kg/injection, schedule: Q01DX009 (ip), vehicle: saline with Tween-80",96 % of control
same,T/C,"dose: 100.0 mg/kg/injection, schedule: Q01DX009 (ip), vehicle: saline with Tween-80",99 % of control
same,T/C,"dose: 200.0 mg/kg/injection, schedule: Q01DX009 (ip), vehicle: saline with Tween-80",92 % of control
C=CCN1C(=O)c2cc(Cl)c(Cl)cc2C1=O,T/C,[3],102 % of control
same,T/C,[4],87 % of control
same,T/C,[5],94 % of control
N#CCCN(CCC#N)C(CCC(=O)O)C(=O)O (stereo not drawn),T/C,[6],93 % of control
same,T/C,[7],100 % of control
same,T/C,[8],101 % of control
CC(C)=CCC(C)/C(=N\[N+](C)(C)C)c1ccccc1 (stereo not drawn),T/C,[1],94 % of control
same,T/C,[2],99 % of control
same,T/C,"dose: 25.0 mg/kg/injection, schedule: Q01DX009 (ip), vehicle: saline",101 % of control and 116 % of control
COc1cccc2c1C(=O)c1c(O)c3c(c(O)c1C2=O)C[C@@](O)(C(=O)CO)C[C@@H]3OC1CC([N+](C)(C)C)C(O)C(C)O1 (stereo partly drawn),T/C,"dose: 3.89 mg/kg/injection, schedule: Q04DX003 (ip), vehicle: water",105 % of control
same,T/C,"dose: 6.48 mg/kg/injection, schedule: Q04DX003 (ip), vehicle: water",109 % of control
same,T/C,"dose: 12.5 mg/kg/injection, schedule: Q01DX001 (ip), vehicle: water",112 % of control
same,T/C,"dose: 12.5 mg/kg/injection, schedule: Q01DX009 (ip), vehicle: water",160 % of control and 187 % of control
same,T/C,"dose: 30.0 mg/kg/injection, schedule: Q04DX003 (ip), vehicle: water",150 % of control
N#CN=[N+]([O-])c1cccc(Cl)c1,T/C,"dose: 3.12 mg/kg/injection, schedule: Q01DX009 (ip), vehicle: Klucel (hydroxypropylcellulose) (HPC)",101 % of control
same,T/C,"dose: 6.25 mg/kg/injection, schedule: Q01DX009 (ip), vehicle: Klucel (hydroxypropylcellulose) (HPC)",108 % of control
same,T/C,"dose: 6.25 mg/kg/injection, schedule: Q04DX003 (ip), vehicle: Klucel (hydroxypropylcellulose) (HPC)",101 % of control
same,T/C,"dose: 12.5 mg/kg/injection, schedule: Q01DX009 (ip), vehicle: Klucel (hydroxypropylcellulose) (HPC)",98 % of control
same,T/C,"dose: 12.5 mg/kg/injection, schedule: Q04DX003 (ip), vehicle: Klucel (hydroxypropylcellulose) (HPC)",104 % of control
same,T/C,"dose: 25.0 mg/kg/injection, schedule: Q04DX003 (ip), vehicle: Klucel (hydroxypropylcellulose) (HPC)",91 % of control
CCC[CH2][Sn]([CH2]CCC)([S]CC(=O)OC)[S]CC(=O)OC,T/C,"dose: 1.56 mg/kg/injection, schedule: Q01DX001 (ip), vehicle: Klucel (hydroxypropylcellulose) (HPC)",110 % of control
same,T/C,"dose: 3.12 mg/kg/injection, schedule: Q01DX001 (ip), vehicle: Klucel (hydroxypropylcellulose) (HPC)",111 % of control
same,T/C,"dose: 6.25 mg/kg/injection, schedule: Q01DX001 (ip), vehicle: Klucel (hydroxypropylcellulose) (HPC)",96 % of control
same,T/C,"dose: 12.5 mg/kg/injection, schedule: Q01DX001 (ip), vehicle: Klucel (hydroxypropylcellulose) (HPC)",106 % of control
same,T/C,"dose: 25.0 mg/kg/injection, schedule: Q01DX001 (ip), vehicle: Klucel (hydroxypropylcellulose) (HPC)",115 % of control
O=C(Nc1cccc(Cl)c1)/C(Cl)=C1/Sc2ccccc2NC1=O,T/C,[3],105 % of control
same,T/C,[4],98 % of control
same,T/C,[5],98 % of control
COc1cc2c(cc1O)C(c1cc(O)c(O)c(OC)c1)C(O)(C(=O)O)C(CO)C2O (stereo not drawn),T/C,[3],100 % of control
same,T/C,[4],101 % of control
same,T/C,[5],99 % of control
CC(=O)c1c(O)c2ccc(Cl)cc2[nH]c1=O,T/C,[3],99 % of control
same,T/C,[4],96 % of control
same,T/C,[5],99 % of control
[C-]#[N+]C1CC2CCC1C2.[C-]#[N+]C1CC2CCC1C2.[C-]#[N+]C1CC2CCC1C2.[C-]#[N+]C1CC2CCC1C2.[C-]#[N+]C1CC2CCC1C2.[C-]#[N+]C1CC2CCC1C2.[Mn] (stereo not drawn),T/C,"dose: 0.19 mg/kg/injection, schedule: Q01DX009 (ip), vehicle: saline with Tween-80",115 % of control
same,T/C,"dose: 0.38 mg/kg/injection, schedule: Q01DX009 (ip), vehicle: saline with Tween-80",156 % of control
CCCCCCCCCCCCn1c2nc(=O)[nH]c(=O)c-2nc2ccccc21,T/C,"dose: 3.12 mg/kg/injection, schedule: Q01DX005 (ip), vehicle: saline with Tween-80",97 % of control
same,T/C,"dose: 6.25 mg/kg/injection, schedule: Q01DX005 (ip), vehicle: saline with Tween-80",97 % of control
same,T/C,"dose: 12.5 mg/kg/injection, schedule: Q01DX005 (ip), vehicle: saline with Tween-80",90 % of control
same,T/C,[4],87 % of control
same,T/C,[5],91 % of control
CO[C@H]1/C=C/O[C@@]2(C)Oc3c(C)c(O)c4c(O)c(c(/C=N/N5CCCN(Cc6ccccc6)CC5)c(O)c4c3C2=O)NC(=O)/C(C)=C\C=C\[C@H](C)[C@H](O)C(C)[C@@H](O)C(C)[C@H](OC(C)=O)[C@@H]1C (stereo partly drawn),T/C,"dose: 25.0 mg/kg/injection, schedule: Q01DX009 (ip), vehicle: suspension in saline",107 % of control
CC1(CSc2ccccc2)CC(=O)N1 (stereo not drawn),T/C,"dose: 50.0 mg/kg/injection, schedule: Q01DX009 (ip), vehicle: suspension in saline",111 % of control
same,T/C,"dose: 100.0 mg/kg/injection, schedule: Q01DX009 (ip), vehicle: suspension in saline",98 % of control
same,T/C,"dose: 200.0 mg/kg/injection, schedule: Q01DX009 (ip), vehicle: suspension in saline",99 % of control
COc1cc2c(C)c3ccccc3c(C)c2c2ccccc12,T/C,[9],101 % of control
same,T/C,"dose: 200.0 mg/kg/injection, schedule: Q01DX001 (ip), vehicle: Klucel (hydroxypropylcellulose) (HPC)",110 % of control
same,T/C,"dose: 400.0 mg/kg/injection, schedule: Q01DX001 (ip), vehicle: Klucel (hydroxypropylcellulose) (HPC)",105 % of control
COc1cc(CO)c(CO)cc1OC,T/C,"dose: 0.75 mg/kg/injection, schedule: Q01DX005 (ip), vehicle: saline",93 % of control
same,T/C,"dose: 1.5 mg/kg/injection, schedule: Q01DX005 (ip), vehicle: saline",95 % of control
same,T/C,"dose: 3.0 mg/kg/injection, schedule: Q01DX005 (ip), vehicle: saline",93 % of control
same,T/C,"dose: 3.12 mg/kg/injection, schedule: Q01DX005 (ip), vehicle: saline",98 % of control
CCCCNC(=O)NC1OC(CO)C(O)C1O (stereo not drawn),T/C,[6],98 % of control
same,T/C,[7],97 % of control
same,T/C,[8],100 % of control
CCN(CC)CCOCC1CC2C(C=C1C)C2(C)C (stereo not drawn),T/C,[6],107 % of control
same,T/C,[7],98 % of control
O=Nc1ccc(O)c2ncccc12,T/C,"dose: 50.0 mg/kg/injection, schedule: Q01DX001 (ip), vehicle: Klucel (hydroxypropylcellulose) (HPC)",111 % of control
same,T/C,[9],121 % of control
